Results reported in patent publication US4868182A, “Enhancement of prazosin” (Merrell Dow Pharmaceuticals Inc., priority 1988, dated 1989).
One block for each molecule: values may come before it.

Experiments:
[1] = tested on: spontaneously hypertensive rats; assay: lowering of systolic blood pressure in spontaneously hypertensive rats; format: in vivo, rat; settings: SHR, oral, prazosin 0.1 mg/kg, alone or combined, mean ± SE
[2] = molecular target: cyclic AMP-phosphodiesterase; assay: in vitro inhibition of cyclic AMP-phosphodiesterase; format: biochemical; settings: 50% inhibition of cyclic AMP-phosphodiesterase activity on 1 micromolar substrate
Protocol: In general, the specific cyclic AMP-phosphodiesterase inhibitors of this invention, (i.e., the above-described cardiotonic agents) when conjunctively administered with prazosin to effect their synergistic activity, are administered at about the threshold dose to exert a blood pressure lowering effect, i.e., the minimum dose it takes to exert a statistically significant lowering of blood pressure. This threshold dose is readily determined by standard laboratory methodology. For example, assays such as the Spontaneously Hypertensive Rat and the Anesthesized Dog for testing blood pressure effects may readily be employed to determine the threshold dose of lowering blood pressure. The threshold dose may also be approximately calculated from an in vitro IC50 value. For this purpose the in vitro IC50 value is the micromolar quantity of compound needed to effect a 50% inhibition of the activity of cyclic AMP-phosphodiesterase on one (1) micromolar quantity of substrate. This IC50 value, when multiplied by the appropriate fraction for intravenous and oral administrations will yield the dosage range, in mg per kg of body weight, necessary to effect its synergism with prazosin.
On the basis of spontaneously hypertensive rat data the multiplying factor is 1/10 to 1 for the intravenous dose and 1 to 10 for the oral dose. […]

SMILES: Nc1cc(-c2ccncc2)c[nH]c1=O [amrinone]
- systolic blood pressure change from control at 1 hour ([1]; Table 2, amrinone 55 mg/kg): -26 ± 6 mmHg
- systolic blood pressure change from control at 2 hours ([1]; Table 2, amrinone 55 mg/kg): -23 ± 5 mmHg
- systolic blood pressure change from control at 3 hours ([1]; Table 2, amrinone 55 mg/kg): -21 ± 8 mmHg
- systolic blood pressure change from control at 4 hours ([1]; Table 2, amrinone 55 mg/kg): -23 ± 7 mmHg

SMILES: COc1cc2nc(N3CCN(C(=O)c4ccco4)CC3)nc(N)c2cc1OC [prazosin]
- systolic blood pressure change from control at 1 hour ([1]; Table 1, piroximone 25 mg/kg): -40 ± 4 mmHg
- systolic blood pressure change from control at 2 hours ([1]; Table 1, piroximone 25 mg/kg): -40 ± 4 mmHg
- systolic blood pressure change from control at 3 hours ([1]; Table 1, piroximone 25 mg/kg): -42 ± 4 mmHg
- systolic blood pressure change from control at 4 hours ([1]; Table 1, piroximone 25 mg/kg): -35 ± 5 mmHg
- systolic blood pressure change from control at 1 hour ([1]; Table 2, amrinone 55 mg/kg): -32 ± 3 mmHg
- systolic blood pressure change from control at 2 hours ([1]; Table 2, amrinone 55 mg/kg): -31 ± 4 mmHg
- systolic blood pressure change from control at 3 hours ([1]; Table 2, amrinone 55 mg/kg): -32 ± 4 mmHg
- systolic blood pressure change from control at 4 hours ([1]; Table 2, amrinone 55 mg/kg): -31 ± 4 mmHg

- IC50 [2]: 26 µM
SMILES: CCc1[nH]c(=O)[nH]c1C(=O)c1ccncc1 [piroximone]
- systolic blood pressure change from control at 1 hour ([1]; Table 1, piroximone 25 mg/kg): -23 ± 5 mmHg
- systolic blood pressure change from control at 2 hours ([1]; Table 1, piroximone 25 mg/kg): -17 ± 6 mmHg
- systolic blood pressure change from control at 3 hours ([1]; Table 1, piroximone 25 mg/kg): -18 ± 7 mmHg
- systolic blood pressure change from control at 4 hours ([1]; Table 1, piroximone 25 mg/kg): -20 ± 5 mmHg
